From ChEMBL document CHEMBL4251557 (Eur J Med Chem, 2017) come the findings set out here.

Experiment [1] concerns the target Neuraminidase (Influenza A virus) (UniProt A5Z252). Conditions: Influenza A virus (A/Anhui/1/2005(H5N1)); at 10 µM.
For experiment [2] the target is unchanged. Conditions: Influenza A virus (A/Anhui/1/2005(H5N1)); at 100 µM.
Experiment [3] concerns the target Neuraminidase (Influenza A virus, UniProt A5Z252). Description: Inhibition of Influenza A virus A/Anhui/1/2005(H5N1) neuraminidase using MUNANA as substrate preincubated for 5 to 15 mins followed by substrate addition measured after 30 mins by fluorescence assay.
Experiment [4] has as its target T1, Neuraminidase (Influenza A virus, UniProt B4URF0). Description: Inhibition of Influenza A virus A/Anhui/1/2013(H7N9) neuraminidase 150 cavity at 10 uM using MUNANA as substrate preincubated for 5 to 15 mins followed by substrate addition measured after 30 mins by fluorescence assay relative to control.
For experiment [5], the target named is T1, Neuraminidase. In words: Inhibition of Influenza A virus A/California/04/2009(H1N1) neuraminidase using MUNANA as substrate preincubated for 5 to 15 mins followed by substrate addition measured after 30 mins by fluorescence assay.

T1 sequence (B4URF0 whole entry): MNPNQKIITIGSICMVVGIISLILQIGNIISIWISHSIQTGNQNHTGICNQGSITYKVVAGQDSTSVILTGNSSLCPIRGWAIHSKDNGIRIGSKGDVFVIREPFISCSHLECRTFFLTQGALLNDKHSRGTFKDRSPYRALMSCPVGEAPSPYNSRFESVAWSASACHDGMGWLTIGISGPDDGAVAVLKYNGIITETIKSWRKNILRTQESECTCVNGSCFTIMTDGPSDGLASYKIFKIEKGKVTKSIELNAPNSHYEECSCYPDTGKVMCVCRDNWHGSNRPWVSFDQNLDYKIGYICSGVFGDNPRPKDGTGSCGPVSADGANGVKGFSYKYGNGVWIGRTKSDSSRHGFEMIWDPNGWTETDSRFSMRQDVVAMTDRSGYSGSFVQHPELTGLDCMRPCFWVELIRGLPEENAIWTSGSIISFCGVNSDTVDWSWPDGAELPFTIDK

`CCC(CC)O[C@@H]1C=C(C(=O)O)C[C@H](NC(=O)[C@H](O)CCc2ccccc2)[C@H]1NC(C)=O`: the inhibition in experiment [1] was found to be 49.2%; in experiment [2], 60.4%.

Regarding `CCOC(=O)C1=C[C@@H](OC(CC)CC)[C@H](NC(C)=O)[C@@H](N)C1`, the inhibition in experiment [1] came out at 91%; in experiment [2], 95.5%. For `CCCC(=O)N[C@H]1CC(C(=O)O)=C[C@@H](OC(CC)CC)[C@@H]1NC(C)=O`, in that order: 14.7% and 66.8%. In the case of `CCC(CC)O[C@@H]1C=C(C(=O)O)C[C@H](NC(=O)CF)[C@H]1NC(C)=O`, the IC50 on Neuraminidase [3] amounted to 0.228 µM.

Regarding `CCCCCC(=O)N[C@H]1CC(C(=O)O)=C[C@@H](OC(CC)CC)[C@@H]1NC(C)=O`, the inhibition in experiment [2] turned out to be 33.2%. The compound `CCC(CC)O[C@@H]1C=C(C(=O)O)C[C@H](NC(=O)C(F)F)[C@H]1NC(C)=O` came in with an IC50 against Neuraminidase [3] of 0.19 µM. In other words, the sub-micromolar range. The compound `CCC(CC)O[C@@H]1C=C(C(=O)O)C[C@H](NC(=O)CN)[C@H]1NC(C)=O` came in with an IC50 on Neuraminidase [3] of 2.67 µM. For `CCC(CC)O[C@@H]1C=C(C(=O)O)C[C@H](NC(=O)Cc2c[nH]c3ccccc23)[C@H]1NC(C)=O`, the inhibition was determined as 12.8% in experiment [1] and 47.3% in experiment [2].

Regarding `CCC(CC)O[C@@H]1C=C(C(=O)O)C[C@H](NC(=O)CCCc2ccccc2)[C@H]1NC(C)=O`, in experiment [2], the inhibition amounted to 36%.

On to `CCC(CC)O[C@@H]1C=C(C(=O)O)C[C@H](NC(=O)[C@@H](C)N)[C@H]1NC(C)=O`, for which the inhibition in experiment [1] worked out at 18.8%; in experiment [2], 49.3%. Turning to `CCC(CC)O[C@@H]1C=C(C(=O)O)C[C@H](NC(=O)CCc2ccccc2)[C@H]1NC(C)=O`, the inhibition in experiment [2] turned out to be 19.1%.

Take `CCC(CC)O[C@@H]1C=C(C(=O)O)C[C@H](NC(=O)CN(C)C)[C@H]1NC(C)=O`: the inhibition turned out to be 30% in experiment [1] and 58.2% in experiment [2].

In the case of `CCC(=O)N[C@H]1CC(C(=O)O)=C[C@@H](OC(CC)CC)[C@@H]1NC(C)=O`, the figures for the inhibition in experiment [1] and in experiment [2] were 47.9% and 84.5%, respectively. Regarding `CCC(CC)O[C@@H]1C=C(C(=O)O)C[C@H](NC(=O)C(F)(F)F)[C@H]1NC(C)=O`, the IC50 against Neuraminidase [3] was found to be 0.266 µM. For the compound `CCC(CC)O[C@@H]1C=C(C(=O)O)C[C@H](NC(=O)Cc2ccc(C)cc2)[C@H]1NC(C)=O`, the inhibition is 10% in experiment [1] and 57.2% in experiment [2]. On Neuraminidase [3], `CCC(CC)O[C@@H]1C=C(C(=O)O)C[C@H](NC=O)[C@H]1NC(C)=O` returned an IC50 of 1.29 µM. For `CCC(CC)O[C@@H]1C=C(C(=O)O)C[C@H](NC(C)=O)[C@H]1NC(C)=O`, the IC50 worked out at 0.0595 µM at Neuraminidase [4], 0.238 µM on Neuraminidase [3] and 0.0165 µM against Neuraminidase [5]. Consider `CCC(CC)O[C@@H]1C=C(C(=O)O)C[C@H](NC(=O)/C=C/c2ccccc2)[C@H]1NC(C)=O`, for which the inhibition turned out to be 14.5% in experiment [1] and 50.2% in experiment [2]. For `CCC(CC)O[C@@H]1C=C(C(=O)O)C[C@H](NC(=O)C(C)C)[C@H]1NC(C)=O`, in that order: 14.2% and 47.6%. `C=CC(=O)N[C@H]1CC(C(=O)O)=C[C@@H](OC(CC)CC)[C@@H]1NC(C)=O` gave an IC50 at Neuraminidase [3] of 2.98 µM. In experiment [2], `CCCCC(=O)N[C@H]1CC(C(=O)O)=C[C@@H](OC(CC)CC)[C@@H]1NC(C)=O` displayed an inhibition of 11.3%.

The inhibition is the percentage by which the read-out fell short of the control. The term IC50 denotes the concentration that gives 50% inhibition. Lower therefore signals greater potency.
